Laboratory results: patent US4837218A, “Alkylated bicycloalkaneamines for treatment of neurotoxic injury” (Washington University, priority 1987, dated 1989)

Experiments:
[1] = system: NMA (200 μM) neurotoxicity in chick embryo retina; assay: NMDA/KA Antagonist Assay: prevention of NMA neurotoxicity in chick embryo retina; type: cell-based; settings: Gallus gallus, 0.5 h, 15-day old chick embryo retina, 30 min at 37° C., criterion: complete prevention of toxicity in all specimens, read-out: concentration providing total protection against toxicity of NMA
Experimental: (§1) A 15-day old chick embryo retina, incubated for 30 min. in a balanced salt solution (BSS) containing 1 mM Glu, developed a full lesion resembling that described in the immature mouse retina following s.c. administration of Glu. Other excitotoxin agonists also produce acute lesions within 30 min., each agent being effective at a concentration proportional to its known excitatory and toxic potencies. The pattern of cellular degeneration is restricted in each case to the ganglion cell, inner plexiform and inner nuclear layers, but within these areas certain agonists induce different patterns of degeneration, the differences being most pronounced between NMA and KA. Two agonists were employed in the present test, each at a concentration established previously to be the lowest concentration required to consistently cause a fully-developed retinal lesion: KA (25 μM) and NMA (200 μM). Mecamylamine was tested at various concentrations for its ability to prevent KA or NMA neurotoxicity. Although partial blocking was sometimes observed for antagonist concentrations below the threshold for complete protection, the criterion used for comparing agents for antagonist potency was the concentration required to completely prevent KA or NMA from exerting any toxic activity in any specimen (n>6) studied at that concentration. […]

[2] = system: KA (25 μM) neurotoxicity in chick embryo retina; assay: NMDA/KA Antagonist Assay: prevention of KA neurotoxicity in chick embryo retina; type: cell-based; settings: 15-day old chick embryo retina, 30 min at 37° C., tested at various concentrations
Experimental: as §1

[3] = molecular target: PCP receptor (binding of the PCP ligand 3H-TCP); assay: Receptor Binding Assay: inhibition of 3H-TCP binding in frozen brain sections; settings: frozen brain sections (10 microns), 20 nM 3H-TCP, 45 min at 4° C., Scatchard/Rosenthal analysis
Experimental: Prevention of the neurodegenerative consequences associated with conditions of hypoxia or ischemia may be accomplished with administration of a compound of Formula I. In particular, the compound 3-methylamino-2,2,3-trimethylbicyclo[2.2.1]heptane (mecamylamine) was evaluated in biological assays designed to detect compounds capable of inhibiting hypoxia/ischemia-induced neuronal degeneration. Mecamylamine was evaluated for its ability to inhibit the binding of the PCP ligand tritiated 1-[1-(2-thienyl)cyclohexyl]piperidine [^3 H-TCP].
For receptor binding, frozen brain sections (10 microns) were incubated in […] tris acetate (pH 7.25) containing 0.5 mM magnesium acetate and 20 nM ^3 H-TCP for 45 min. at 4° C. Non-specific binding was assessed with 200 μM PCP. Inhibition of ^3 H-TCP binding was studied by including potential inhibitors in the ^3 H-TCP incubation at concentrations from 10 nM to 1 mM. Dissociation and inhibition constants were calculated by Scatchard/Rosenthal analysis of data obtained by liquid scintillation counting of whole sections.

## CNC1(C)C2CCC(C2)C1(C)C (stereo not drawn) [mecamylamine, 3-(methylamino)-2,2,3-trimethylbicyclo[2.2.1]heptane]
[1]
  EC100: 100 µM
[2]
  blocking of KA toxicity: not observed
[3]
  Ki: 122 µM
